Target: PARP-1 enzyme (Homo sapiens, UniProt P09874)
Assay: In vitro filtration assay for PARP-1 inhibitory activity
Type: biochemical
Settings: [32P]-NAD, histones, nicked DNA; read-out: in vitro filter assay PARP-1 pIC50 (converted)
Description: In Vitro Filtration Assay for PARP-1 Inhibitory Activity
Compounds of the present invention were tested in an in vitro filtration assay assessing PARP-1 activity (triggered in the presence of nicked DNA) by means of its histone poly (ADP-ribosyl)ation activity using [^32P]-NAD as ADP-ribosyl donor. The radioactive ribosylated histones were precipitated by trichloroacetic acid (TCA) in 96-well filterplates and the incorporated [^32P] measured using a scintillation counter
A mixture of histones (stock solution: 5 mg/ml in H2O), NAD^+ (stock solution: 100 mM in H2O), and [^32P]-NAD^+ in incubation buffer (50 mM Tris/HCl, pH 8; 0.2 mM DTT; 4 mM MgCl2) was made. A mixture of the PARP-1 enzyme (5-10 μg/ml) and nicked DNA was also made. The nicked DNA was prepared as described in the in vitro SPA for PARP-1 inhibitory activity. Seventy-five μl of the PARP-1 enzyme/DNA mixture together with 1 μl of compound in DMSO and 25 μl of histones-NAD^+/[^32P]-NAD^+ mixture was added per well of a 96-well filterplate (0.45 μm, supplier Millipore). The final concentrations in the incubation mixture were 2 μg/ml for the histones, 0.1 mM for the NAD^+, […] (0.5 μC) for the [^32P]-NAD^+ and 2 μg/ml for the nicked DNA. Plates were incubated for 15 min. at room temperature and the reaction was terminated by the addition of 10 μl ice cold 100% TCA followed by the addition of 10 μl ice-cold BSA solution (1% in H2O). The protein fraction was allowed to precipitate for 10 min. at 4° C. and plates were vacuum filtered. The plates were subsequently washed with, for each well, 1 ml of 10% ice cold TCA, 1 ml of 5% ice cold TCA and 1 ml of 5% TCA at room temperature. Finally 100 μl of scintillation solution (Microscint 40, Packard) was added to each well and the plates were transferred to a TopCountNXT™ (supplier: Packard) for scintillation counting and values were expressed as counts per minute (cpm). For each experiment, controls (containing PARP-1 enzyme and DMSO without compound), a blank incubation (containing DMSO but no PARP-1 enzyme or compound) and samples (containing PARP-1 enzyme and compound dissolved in DMSO) were run in parallel. All compounds tested were dissolved and eventually further diluted in DMSO. In first instance, compounds were tested at a concentration of 10^−5M. […] In each test, the blank value was subtracted from both the control and the sample values. The control sample represented maximal PARP-1 enzyme activity. For each sample, the amount of cpm was expressed as a percentage of the mean cpm value of the controls. […] Herein the effects of test compounds are expressed as pIC50 (the negative log value of the IC50-value).

PARP-1 enzyme, sequence (P09874 whole entry): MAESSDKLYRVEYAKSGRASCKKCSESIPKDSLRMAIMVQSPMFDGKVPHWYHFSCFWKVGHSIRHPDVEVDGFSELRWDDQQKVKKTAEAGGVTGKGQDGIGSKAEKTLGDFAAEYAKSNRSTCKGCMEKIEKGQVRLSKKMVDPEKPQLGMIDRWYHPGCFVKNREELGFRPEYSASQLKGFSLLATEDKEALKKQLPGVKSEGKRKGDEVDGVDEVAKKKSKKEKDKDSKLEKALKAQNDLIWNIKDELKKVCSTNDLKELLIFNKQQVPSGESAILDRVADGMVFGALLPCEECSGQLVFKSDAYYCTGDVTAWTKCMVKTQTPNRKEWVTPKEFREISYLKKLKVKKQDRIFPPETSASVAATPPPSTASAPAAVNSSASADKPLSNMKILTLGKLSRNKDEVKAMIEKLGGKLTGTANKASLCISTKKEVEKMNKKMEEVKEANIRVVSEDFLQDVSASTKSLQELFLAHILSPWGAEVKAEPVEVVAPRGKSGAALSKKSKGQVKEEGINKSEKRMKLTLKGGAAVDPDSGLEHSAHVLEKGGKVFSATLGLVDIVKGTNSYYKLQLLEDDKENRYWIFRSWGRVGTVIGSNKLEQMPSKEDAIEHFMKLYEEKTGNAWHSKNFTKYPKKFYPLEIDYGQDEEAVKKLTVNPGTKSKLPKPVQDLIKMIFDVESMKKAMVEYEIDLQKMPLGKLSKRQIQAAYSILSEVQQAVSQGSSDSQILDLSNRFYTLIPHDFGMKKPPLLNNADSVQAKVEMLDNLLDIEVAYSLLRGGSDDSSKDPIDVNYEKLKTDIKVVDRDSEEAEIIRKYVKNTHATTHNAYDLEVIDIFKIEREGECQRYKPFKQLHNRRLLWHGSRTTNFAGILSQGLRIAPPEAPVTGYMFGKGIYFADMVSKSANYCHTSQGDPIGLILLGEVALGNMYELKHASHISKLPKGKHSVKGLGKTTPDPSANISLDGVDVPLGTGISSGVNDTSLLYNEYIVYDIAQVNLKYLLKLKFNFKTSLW

Row | Compound | IC50
1 | O=c1[nH]c(NCCCN2CCC(O)(c3ccc(Cl)cc3)CC2)nc2ccccc12 [Compound 2] | 0.973 µM
2 | CC1(C)Cc2c(N)c(Cl)cc(C(=O)NC3CCN(CCCNc4nc(O)c5ccccc5n4)CC3)c2O1 [Compound 4] | 3.65 µM
3 | CC1(C)Cc2c(N)c(Cl)cc(C(=O)NC3CCN(CCCCNc4nc(O)c5ccccc5n4)CC3)c2O1 [Compound 5] | 2.64 µM
4 | CO[C@@H]1CN(CCCNc2nc(O)c3ccccc3n2)CC[C@@H]1NC(=O)c1cc(Cl)c(N)c2c1OCCC2 [Compound 6] | 2.74 µM
5 | Nc1c(Cl)cc(C(=O)OCC2CCN(CCNc3nc4ccccc4c(=O)[nH]3)CC2)c2c1OCCO2 [Compound 7] | 3.44 µM
6 | CO[C@@H]1CN(CCCNc2nc(O)c3ccccc3n2)CCN1NC(=O)c1cc(Cl)c(N)c2c1OC(C)(C)C2 [Compound 8] | 2.11 µM
7 | CO[C@H]1CN(CCCNc2nc3ccccc3c(=O)[nH]2)CC[C@H]1NC(=O)c1cc(Cl)cc2c1OC(C)(C)C2 [Compound 18] | 4.52 µM
8 | O=c1[nH]c(NCCCN2CCC(c3c[nH]c4ccccc34)CC2)nc2ccccc12 [Compound 20] | 5.3 µM
9 | O=c1[nH]c(NCCN2CCC(c3n[nH]c4cc(F)ccc34)CC2)nc2ccccc12 [Compound 21] | 0.52 µM
10 | O=c1[nH]c(NCCCN2CCN(c3n[nH]c4ccccc34)CC2)nc2ccccc12 [Compound 22] | 0.467 µM
11 | O=C(NC1CCN(CCCNc2nc3ccccc3c(=O)[nH]2)CC1)c1ccccc1 [Compound 23] | 2.54 µM
12 | O=c1[nH]c(NCCCN2CCN(c3nsc4ccccc34)CC2)nc2ccccc12 [Compound 24] | 4.95 µM
13 | O=c1[nH]c(NCCCN2CCC(c3n[nH]c4cc(F)ccc34)CC2)nc2ccccc12 [Compound 25] | 2.32 µM
14 | O=c1[nH]c(NCCCN2CCC(c3noc4cc(F)ccc34)CC2)nc2ccccc12 [Compound 26] | 1.63 µM
15 | O=c1[nH]c(NCCCN2CCN(c3n[nH]c4cc(F)ccc34)CC2)nc2ccccc12 [Compound 27] | 0.424 µM
16 | CCCCn1cc(C2CCN(CCCNc3nc4ccccc4c(=O)[nH]3)CC2)c2ccccc21 [Compound 28] | 2.82 µM
17 | O=c1[nH]c(NCCCN2CCC(n3c(=O)[nH]c4ccccc43)CC2)nc2ccccc12 [Compound 29] | 4.65 µM
18 | O=c1nc(NCCCN2CCC(Nc3nccc4ccccc34)CC2)[nH]c2ccccc12 [Compound 40] | 2.24 µM
19 | O=c1[nH]c(NCCN2CCN(c3n[nH]c4cc(F)ccc34)CC2)nc2ccccc12 [Compound 41] | 0.546 µM
20 | O=c1[nH]c(NCCCN2CCC(Nc3cccc4ccccc34)CC2)nc2ccccc12 [Compound 42] | 8.95 µM
21 | Nc1c(Cl)cc(C(=O)NC2CCN(CCCNc3nc(O)c4ccccc4n3)CC2)c2c1CCO2 [Compound 45] | 3.05 µM
22 | O=C(c1ccc(F)cc1)C1CCN(CCNc2nc3ccccc3c(=O)[nH]2)CC1 [Compound 46] | 1.87 µM

Test system: not given
Assay: not given
Settings: not given

Row | Compound | melting point
23 | O=c1[nH]c(NCCN2CCN(c3n[nH]c4ccccc34)CC2)nc2ccc(Cl)cc12 [Compound 1] | 186 °C
24 | O=c1[nH]c(NCCCN2CCC(O)(c3ccc(Cl)cc3)CC2)nc2ccccc12 [Compound 2] | 178.4 °C
